# Source: patent US7989165B2, “Tape stripping methods for analysis of skin disease and pathological skin state” (DermTech International, priority 2004, dated 2011)
# Values joined by “and” are separate entries in the source; they are usually repeats but may differ in a detail not shown here. Identical values can stand only once. Marks after values point to notes of the source that are not given here.
# Key:
# Krt-10 mRNA = test: RT-PCR of keratin-10 mRNA relative to β-actin in SLS-irritated and control skin (tape and biopsy); type: in vivo, human; set-up: key to ΔCt,Krt-10, Tape, SLS / ΔCt,Krt-10, Biopsy, SLS: ΔCt: keratin mRNA Ct normalized to β-actin Ct in same sample; details: for ΔCt,Krt-10, Biopsy, SLS / ΔCt,Krt-10, Tape, SLS: 1% SLS occlusive patch 24 hours, mid-back, relative to β-actin, per subject 1-10 and Average; for ΔCt,Krt-10, Biopsy, SLS / Fold Increase Krt-10/β-actin mRNA vs. normal, Biopsy, SLS: biopsy RNA; for ΔCt,Krt-10, Biopsy, SLS / ΔCt,Krt-10, Tape, SLS / Fold Increase Krt-10/β-actin mRNA vs. normal, Biopsy, SLS / Fold Increase Krt-10/β-actin mRNA vs. normal, Tape, SLS: sulfate; for ΔCt,Krt-10, Tape, SLS / Fold Increase Krt-10/β-actin mRNA vs. normal, Tape, SLS: tape-stripped RNA; for Fold Increase Krt-10/β-actin mRNA vs. normal, Biopsy, SLS / Fold Increase Krt-10/β-actin mRNA vs. normal, Tape, SLS: 1% SLS patch 24 hours vs untreated skin, per subject and Average
# Text: The samples analyzed in this study are those described in the protocol performed by Wong et al. (Wong, Tran et al. 2004). […] Patches were removed and equivalent skin sites were biopsied and tape stripped as described in the Examples above. As an additional control, normal skin was also biopsied and tape stripped. Samples were processed for total RNA and assayed for keratin-10, keratin-16, keratin-17 and β-actin mRNA. The keratin mRNAs were normalized to β-actin mRNA in each sample. The semi-quantitative RT-PCR assay has been previously described (Wong, Tran et al. 2004).
# IL-1β mRNA = test: Semi-quantitative RT-PCR of IL-1β mRNA relative to β-actin in SLS-occluded skin (tape and biopsy); type: in vivo, human
# Text: Clinical protocols: The study protocols were reviewed and approved by an independent IRB (BioMed IRB, San Diego) and all subjects signed informed consent. […] The bandages were made using a clear, non-porous plastic hypoallergenic adhesive tape. […] The sites were scored by a trained technician using the scale provided below. […] Abbott Laboratories). […] An area of uninvolved skin was tape harvested and shave biopsied in an identical manner. […] The following grading scale was used: 0, no visible reaction; 1, slight, pink, patchy erythema; 2, mild confluent, pink erythema; 3, moderate erythema (definite redness) with edema; 4, strong erythema (very intense redness) with edema. […] Patches were removed, scored and tape stripped as above. In a third study, two individuals were tape stripped on uninvolved skin on the upper back at three adjacent sites as above. RNA harvested in these last two studies was used in the DNA microarray experiments described below. Isolation of RNA: […] Extraction was performed using the manufacturer's directions and included a Proteinase K digestion, sonication of tapes and “on-column” DNase I digestion. […] Extraction of biopsies was performed with the same kit according to the manufacturer's instructions. Quantitative RT-PCR: 10 μl of RNA was reverse transcribed (RT) into cDNA with the Sensiscript Reverse Transcriptase kit and random hexamers in a final volume of […] according to the manufacturer's directions. […] All RT-reactions were amplified using 2 replicates and were negative (data not shown). Amplification and detection of specific mRNA: Specific mRNAs were converted to cDNA as described above. […] Amplification and detection assays were performed using TaqMan Pre-Developed Assay Reagents (PDAR; […] GAPDH mRNA assays were done in singleplex format. Thermal cycling conditions were: prior to cycling, two minutes at 50° C., then ten minutes at 95° C.; then 40 cycles at 95° C. for 15 seconds and 60° C. for 60 seconds. […] Semi-quantitation of mRNA using the ΔΔCt method: In this Example the comparative or ΔΔCt method of calculating relative gene expression levels between two samples, was used. In the ΔΔCt method the levels of IL-1β, IL-8 and GAPDH mRNAs are assayed semi-quantitatively by normalization to β-actin mRNA to create a ratio of (mRNAx)/(β-actin) mRNA for each RNA sample. This ratio is then further normalized to a control sample (a process called “calibration”; (Applied Biosystems 2001)). When comparing the ratio of mRNAx to β-actin mRNA between two different samples, it is implicitly assumed that the level of β-actin mRNA to total RNA is constant between the two samples (i.e. it is an unchanging housekeeping gene). […] The Ct values are the experimentally determined number of PCR cycles required to achieve a threshold fluorescence (statistically significant increase in fluorescence over background) for mRNAx and β-actin mRNA (Gibson, Heid et al. 1996; Heid, Stevens et al. 1996). Calculation of fold-increase and data analysis: Key to the method used to measure mRNA is the fact that the quantity of specific mRNA directly correlates with the number of cycles needed to reach threshold fluorescence, thus the fewer the number of cycles (the lower the Ct), the more mRNA is initially present. As described above, experimental data is reported as the number of cycles (Ct) required to reach a threshold fluorescence. […] The significance of ΔCt values (Tables I and IV) was determined by applying a two-sided, paired t-test. […]
# [1] = SLS-occluded skin vs uninvolved skin
compound,measurement,setting,value
"CCCCCCCCCCCCOS(=O)(=O)[O-].[Na+] [SLS, sodium lauryl sulfate]","ΔCt,Krt-10, Biopsy, SLS",Krt-10 mRNA,−4.28 and −0.24 and −3.09 and −6.35 and −4 and 0.4 and −2 and −2.7 and 1.91 and −5.97
same,"ΔCt,Krt-10, Biopsy, SLS",Krt-10 mRNA; mean,−2.63
same,"ΔCt,Krt-10, Tape, SLS",Krt-10 mRNA,−2.76 and 3.68 and 8.19 and −0.3 and 0.93 and 5.1 and 1.03 and 4.17 and 3.81 and −0.81
same,"ΔCt,Krt-10, Tape, SLS",Krt-10 mRNA; mean,2.30
same,"Fold Increase Krt-10/β-actin mRNA vs. normal, Biopsy, SLS",Krt-10 mRNA,0.15 fold and 0.01 fold (2×) and 0.06 fold (2×) and 0.65 fold and 0.1 fold and 0.03 fold and <0.001 fold and 0.57 fold
same,"Fold Increase Krt-10/β-actin mRNA vs. normal, Biopsy, SLS",Krt-10 mRNA; mean,0.05 fold
same,"Fold Increase Krt-10/β-actin mRNA vs. normal, Tape, SLS",Krt-10 mRNA,1.55 fold and 0.03 fold and <0.001 fold and 0.01 fold (3×) and 0.31 fold and 1.22 fold
same,"Fold Increase Krt-10/β-actin mRNA vs. normal, Tape, SLS",Krt-10 mRNA; mean,0.06 fold
same,average decrease in K10 expression,"Krt-10 mRNA; SLS treatment vs untreated skin, tape and biopsy virtually identical",~20 fold
same,"fold-change in IL-1β/β-actin mRNA ratio, Biopsy","IL-1β mRNA; SLS-occluded skin relative to uninvolved skin, biopsy samples, per subject, > = minimum estimate, sulfate",>15**^† fold and >3.3** fold and >8**^† fold and >34**^† fold and >11**^† fold and 56**^† fold and >53**^† fold and 2.2** fold and 1 fold and >28**^† fold
same,"fold-change in IL-1β/β-actin mRNA ratio, Tape","IL-1β mRNA; SLS-occluded skin relative to uninvolved skin, tape samples, per subject, > = minimum estimate, sulfate",18**^† fold and >0.44 fold and >8.1**^† fold and >1.9** fold and >5** fold and >1.4 fold and >7.3**^† fold
same,biopsy samples with significantly elevated IL-1β/β-actin mRNA ratio,IL-1β mRNA; [1],9 of 10
same,tape-harvested samples with significant increases in IL-1β/β-actin mRNA,IL-1β mRNA; [1],5 of 10
same,SLS-treated biopsy samples with significant increases in IL-1β/actin mRNA ratio calibrated to the water-treated site,IL-1β mRNA; of 10 biopsy samples,7 samples
